According to patent publication US10392622B2, “Compositions and methods for self-regulated inducible gene expression” (The Trustees of the University of Pennsylvania, priority 2014, dated 2019):
“Also recorded” adds a separate entry of the source.

B1: Q18M: lacI repressor point mutant in the DNA binding domain, residue 18 Q to M (protein, listed as Escherichia coli)
chain: MKPVTLYDVAEYAGVSYMTVSRVVNQASHVSAKTREKVEAAMAELNYIPNRVAQQLAGKQSLLIGVATSSLALHAPSQIVAAIKSRADQLGASVVVSMVERSGVEACKAAVHNLLAQRVSGLIINYPLDDQDAIAVEAACTNVPALFLDVSDQTPINSIIFSHEDGTRLGVEHLVALGHQQIALLAGPLSSVSARLRLAGWHKYLTRNQIQPIAEREGDWSAMSGFQQTMQMLNEGIVPTAMLVANDQMALGAMRAITESGLRVGADISVVGYDDTEDSSCYIPPLTTIKQDFRLLGQTSVDRLLQLSQGQAVKGNQLLPVSLVKRKTTLAPNTQTASPRALADSLMQLARQVSRLESGQ
B2: F161W: lacI repressor effector pocket point mutant, residue 161 F to W (protein, UniProt P03023 1-360, looked up, variant F161W)
Lactose operon repressor: MKPVTLYDVAEYAGVSYQTVSRVVNQASHVSAKTREKVEAAMAELNYIPNRVAQQLAGKQSLLIGVATSSLALHAPSQIVAAIKSRADQLGASVVVSMVERSGVEACKAAVHNLLAQRVSGLIINYPLDDQDAIAVEAACTNVPALFLDVSDQTPINSIIWSHEDGTRLGVEHLVALGHQQIALLAGPLSSVSARLRLAGWHKYLTRNQIQPIAEREGDWSAMSGFQQTMQMLNEGIVPTAMLVANDQMALGAMRAITESGLRVGADISVVGYDDTEDSSCYIPPLTTIKQDFRLLGQTSVDRLLQLSQGQAVKGNQLLPVSLVKRKTTLAPNTQTASPRALADSLMQLARQVSRLESGQ

Tests used:
cells = details: CD-1, mouse
Procedure: Bioavailability of IPTG: Three CD-1 adult mice were gavaged with 25 μL of 1M IPTG per 10 g of body weight twice a day for 3 days. Animals were then sacrificed and major organs were harvested, mechanically homogenized, and steady state concentrations of IPTG in liver, kidney, skeletal muscle, and retina were determined using a beta-galacosidase assay^24. […] IPTG concentrations were tracked in various mouse tissues after a single 3-day IPTG gavage induction cycle. Data points represent mean+/−SD, n=3.

ARPE-19 cells = test: Luciferase regulation assay in transfected ARPE-19 cells with and without IPTG; format: cell-based, human
Procedure: All gene regulation assays start by transiently transfecting the cell line of choice with the appropriate plasmid. Media is supplemented with effector of varying concentration in wells (IPTG for lacI repressor experiments and doxycycline for tet repressor experiments) and specific experimental conditions are typically grown side by side in triplicate. Experimental measurement times varied depending upon cell confluence but occurred 24 to 72 hours after transfection.
Cells were lysed with Reporter Lysis Buffer (Promega) and 5 μL of whole cell lysate was added to 45 μL of luciferase assay buffer (Promega) containing luciferin in 384 well optical bottom plates (Corning). Plates were immediately loaded into the Tecan M1000 and luciferase signal was measured for each well over time. Peak luciferase signal values were used for quantification. […]
The plasmid containing the cassette controlling luciferase was transfected into human retinal pigment epithelium (ARPE-19) cells and grown with and without 2.5 mM IPTG. We measured approximately 20% basal expression with a 3.5-fold induction (p<0.05) (FIG. 1D). […]
Point mutations introduced in the repressor can decrease leakiness, increase dynamic range, or change/alter the affinity for effector molecules in bacterial cells. […] These point mutations were introduced into the repressor and induction measured in ARPE-19 cells. […]

Molecule	gavage concentration of IPTG, fold less than concentrations toxic to cells (cells) [fold]	steady state tissue concentrations of IPTG, fold less than concentrations toxic to cells (cells; 3 days) [fold]	leakiness, dynamic range and maximal expression phenotype (in words) (ARPE-19 cells)
CC(C)SC1OC(CO)C(O)C(O)C1O [IPTG, isopropyl β-D-1-thiogalactopyranoside]	50	500	
B1			deceased leakiness at the expense of maximal expression; also recorded: decreased leakiness as well as the commensurate decreased dynamic range
B2			decreased leakiness and increased dynamic range
